The values below come from patent US4659732A, “Lipoxygenase inhibiting 1-arylalkyl-, 1-arylthio-, and 1-aryloxypyrazole-4,5-diones” (Bayer Aktiengesellschaft, priority 1984, dated 1987).

SMILES strings stand for the structures.

Data set [1] concerns the target T1, 5-lipoxygenase (Homo sapiens, UniProt P09917).
T1 construct: The human polymorphonuclear leucocytes metabolize the arachidonic acid to give 5-hydroxy-5,8,11,14-eicosatetraenoic acid (5-HETE) and leucotriene B4; endogenous in cells; host or cells: human PMN leucocytes from heparinized whole blood
T1 sequence (P09917 1-674): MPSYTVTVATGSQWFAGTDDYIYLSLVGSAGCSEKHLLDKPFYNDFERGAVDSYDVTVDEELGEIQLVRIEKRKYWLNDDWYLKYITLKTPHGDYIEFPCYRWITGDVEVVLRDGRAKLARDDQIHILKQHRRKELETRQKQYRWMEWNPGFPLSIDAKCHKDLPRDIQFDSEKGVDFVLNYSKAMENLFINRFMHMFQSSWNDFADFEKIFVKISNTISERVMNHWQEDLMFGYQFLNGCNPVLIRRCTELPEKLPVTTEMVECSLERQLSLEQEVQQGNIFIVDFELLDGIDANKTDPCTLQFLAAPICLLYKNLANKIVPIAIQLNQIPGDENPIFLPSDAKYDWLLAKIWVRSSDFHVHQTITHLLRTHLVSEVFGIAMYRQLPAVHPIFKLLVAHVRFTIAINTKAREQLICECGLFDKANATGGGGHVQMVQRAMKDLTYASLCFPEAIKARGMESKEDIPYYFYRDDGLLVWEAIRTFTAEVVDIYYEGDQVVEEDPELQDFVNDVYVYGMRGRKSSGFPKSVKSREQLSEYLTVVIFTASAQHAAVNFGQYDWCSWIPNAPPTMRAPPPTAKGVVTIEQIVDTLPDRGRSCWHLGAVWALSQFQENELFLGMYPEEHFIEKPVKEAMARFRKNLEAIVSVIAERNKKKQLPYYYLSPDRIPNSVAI
Put plainly: Inhibition of LTB4 synthesis in human PMN leucocytes (A 23 187 stimulated). It is filed as cell-based. The conditions noted are these: for inhibition at 0.1 µg/mL: 0.1 μg/ml; for inhibition at 0.5 µg/mL: 0.5 μg/ml; for inhibition at 1 µg/mL: 1 μg/ml; for inhibition at 5 µg/mL: 5 μg/ml. Here is the method: The 5-lipoxygenase responsible for the biosynthesis of the leucotrienes B4, C4 and D4 is inhibited selectively at low concentrations. […] Inhibition of the liberation of 5-HETE and leucotriene B4 from the leucocytes constitutes a measure of the lipoxygenase-inhibiting effect of the compounds according to the invention (see Table 1). The test with the human leucocytes was carried out in accordance with Borgeat and Samuelsson (J. Biol. Chem. 254, 2643, 1979, and Proc. Natl. Acad. Sci. USA, 76, 2148, 1979). The human PMN leucocytes (>95%) used in the present example were obtained from heparinized whole blood by dextran sedimentation and subsequent density gradient separation (Ficoll-Paque) (see A. Boyum, Scand. J. Immunol., 5, Suppl. 5, 9, 1976). 2×10^7 cells/ml were suspended in Ca^2+ -containing Dulbecco phosphate buffer and stimulated in the presence and absence of lipoxygenase inhibitors, with the calcium ionophore A 23 187. After 15 minutes, the lipoxygenase products were extracted from the acidified incubation medium and separated by means of HPLC.

Data set [2] relates to leucocyte stickiness. Put plainly: Stickiness of leucocytes in hamster cheek pouch. The format is in vivo, Male Syrian golden hamsters. The conditions noted are these: Effect after administration of 1 mg/kg i.a. The source says: The reduction in the leucocyte stickiness is also responsible for the decrease in ischaemic areas since, after treatment with the compounds to be used according to the invention, the leucocytes pass through the microcirculatory region of these areas without reducing the supply to the corresponding tissue by totally or temporarily closing small vessels or capillaries.
The number of leucocytes which pass through a certain section of a vessel serves as a simple model for measuring the stickiness of leucocytes (Bray, M. A. et al., Prostaglandins, 22, 213, 1981). The less sticky these cells are, the greater is the number of leucocytes counted.
Male Syrian golden hamsters (80-100 g) were anaesthetized with nembutal (i.p.; 60 mg/kg). After fixing a PE 10 catheter in the A.femoralis, the animal is laid on a Duling dissection stage (MVR 5, 423, 1973) and the right cheek pouch is drawn out by inserting a Q-tip. It is carefully drawn into that part of the stage which is intended for this purpose, and is stretched out and fixed. From the beginning of the preparation procedure, the prepared cheek pouch is rinsed over with 5 ml/minute of superfusate. The temperature of the solution is 36° C. While protecting the vessels, the upper layer of tissue is cut longitudinally and folded to the side. Under about 200 times magnification, an area of about 1 cm^2 of connective tissue is carefully exposed. The animal, together with the dissection stage, is placed on the microscope stage. A thermocouple is inserted into the left cheek pouch. The body temperature of the animal is monitored in this manner and maintained within +0.3° C. with the aid of an IR lamp (240 watt).
Measurement of the leucocyte stickiness is carried out under a magnification of about 500 times. A small vein (30-40 μm .phi.) is selected in the exposed area. Over a certain section of this vessel, the number of leucocytes passing by per unit time (min.) is counted.

Data set [3] relates to cyclooxygenase. The conditions noted are these: known lipoxygenase inhibitors; cited from earlier work.
The conditions of data set [4]: administered systemically (for example orally); cited from earlier work.
In data set [5] the test system is myocardial infarct. The data set can be described thus: Myocardial infarct after acute ligature of a coronary artery. The format is in vivo. The conditions noted are these: dog. Here is the method:
The actions of various pyrazoledione derivatives on the experimental myocardial infarct in the dog were investigated after acute ligature of a coronary artery. In pentobarbital-anaesthetised dogs, the proximal left anterior descending coronary artery (LAD) […] occluded for 6 hours. The artery was not reperfused. One hour prior to ligature, the test compounds in 1% tyclose suspension were administered intraduodenally as a bolus. The same procedure was adopted for the controls, except that no active compound was administered. The size of the infarct and the area of perfusion of the LAD were determined biochemically by means of a dual perfusion method using Evans Blue and triphenyltetrazolium chloride. […] This could be observed both with respect to the absolute infarct weight and the infarct size relative to the weight of the left ventricule. Initially, the blood pressure decreased as a result of the coronary ligature, and this led to a reflectory increase in the heart rate.

As for `CC1=NN(CCOc2ccccc2)C(=O)C1=O` [Example 6], in data set [1], the inhibition at 0.1 µg/mL is 38%, testing at 0.5 µg/mL gave an inhibition of 60%, the inhibition at 1 µg/mL came out at 88% and the inhibition at 5 µg/mL amounted to 100%. Besides, in data set [2], the “Inhibition of leucocyte stickiness” value is listed as “no effect”.

Regarding `O=C1CCN(c2ccccc2)N1` [phenidone], in data set [3], the cyclooxygenase inhibition result is recorded as “act as cyclooxygenase inhibitors either simultaneously or only at very high concentrations”.

For the compound `NC1=NN(c2cccc(C(F)(F)F)c2)CC1` [3-amino-1-(3-trifluoromethylphenyl)-2-pyrazoline], in data set [3], the cyclooxygenase inhibition entry is “act as cyclooxygenase inhibitors either simultaneously or only at very high concentrations”. Also, the toxic side effects result in data set [4] was “toxic side effects”.

In data set [1], `COCC1=NN(C(C)c2ccc(Cl)c(Cl)c2)C(=O)C1=O` (stereo not drawn) [Example 3] gave an inhibition at 0.1 µg/mL of 6%, an inhibition at 0.5 µg/mL of 20%, an inhibition at 1 µg/mL of 37% and an inhibition at 5 µg/mL of 100%. In addition, in data set [2], the “Inhibition of leucocyte stickiness” value was “no effect”.

In data set [1], `CC1=NN(CCOc2ccc3ccccc3c2)C(=O)C1=O` [Example 1, 3-Methyl-1-[2-(2-naphthyloxy)-ethyl]-2-pyrazole-4,5-dione] came in with an inhibition at 0.1 µg/mL of 29%, an inhibition at 0.5 µg/mL of 60%, an inhibition at 1 µg/mL of 85% and an inhibition at 5 µg/mL of 100%. In data set [2], the “Inhibition of leucocyte stickiness” value is on record as “inhibition”.

In data set [1], `CC1=NN(C(C)c2ccc(Cl)c(Cl)c2)C(=O)C1=O` (stereo not drawn) [Example 5] gave an inhibition at 0.5 µg/mL of 12%, an inhibition at 1 µg/mL of 29% and an inhibition at 5 µg/mL of 84%. In data set [2], the “Inhibition of leucocyte stickiness” value is “no action”.

The compound `CC(C)(C)C1=NN(CCOc2ccccc2)C(=O)C1=O` [Example 2] displayed an inhibition at 1 µg/mL in data set [1] of 12%. For the same compound, the “Inhibition of leucocyte stickiness” value in data set [2] was “inhibition”.

Turning to `CC1=NN(C(C)c2ccc3c(c2)CCCC3)C(=O)C1=O` (stereo not drawn) [Example 7], in data set [1], the inhibition at 0.5 µg/mL was found to be 10%, at 1 µg/mL the inhibition was 21% and the inhibition at 5 µg/mL was determined as 100%. For the same compound, in data set [2], the “Inhibition of leucocyte stickiness” value is “inhibition”.

Consider `CCCC1=NN(CCOc2ccc3ccccc3c2)C(=O)C1=O` [Example 10], for which, in data set [1], the inhibition at 0.5 µg/mL was 12%, testing at 1 µg/mL gave an inhibition of 56% and the inhibition at 5 µg/mL worked out at 100%. In addition, in data set [2], the “Inhibition of leucocyte stickiness” value is given as “inhibition”.

In data set [1], `COCC1=NN(CCOc2ccc3ccccc3c2)C(=O)C1=O` [Example 4] yielded an inhibition at 0.1 µg/mL of 15%, an inhibition at 0.5 µg/mL of 47%, an inhibition at 1 µg/mL of 60% and an inhibition at 5 µg/mL of 100%. Moreover, the “Inhibition of leucocyte stickiness” value in data set [2] is recorded as “inhibition”.

For `O=C1C(=O)N(CCOc2ccc3ccccc3c2)N=C1CC1CCCCC1` [Example 8], in data set [1], the inhibition at 0.5 µg/mL amounted to 10%, testing at 1 µg/mL gave an inhibition of 35% and testing at 5 µg/mL gave an inhibition of 100%. For the same compound, the “Inhibition of leucocyte stickiness” value in data set [2] is given as “no action”.

In the case of `C1=CSc2ccccc2N1` [4H-1,4-benzothiazine], the haemodynamic effects result in data set [5] (LAD ligature, intraduodenal) is reported as “no haemodynamic effects”. Also, the infarct size entry in data set [5] (gradual LAD occlusion 6 hours, intraduodenal bolus one hour prior to ligature, absolute infarct weight and relative to left ventricle weight) was “substantially reduced the infarct size”.

For `CC(Cc1ccc(O)c(O)c1)C(C)Cc1ccc(O)c(O)c1` (stereo not drawn) [nordihydroguaretic acid], the cyclooxygenase inhibition entry in data set [3] was “act as cyclooxygenase inhibitors either simultaneously or only at very high concentrations”.

`CCCCCC=CCC=CCC=CCC=CCCCC(=O)O` [5,8,11,14-eicosatetraenoic acid]: the cyclooxygenase inhibition entry in data set [3] is “act as cyclooxygenase inhibitors either simultaneously or only at very high concentrations”.

As to `CC1=NN(C(C)c2cccc(C(F)(F)F)c2)C(=O)C1=O` (stereo not drawn) [Example 9], in data set [1], 1 µg/mL produced 40% inhibition and the inhibition at 5 µg/mL was determined as 73%. Besides, in data set [2], the “Inhibition of leucocyte stickiness” value is “no effect”.

In data set [1], `CC1=NN(C(C)C2CCCCC2)C(=O)C1=O` (stereo not drawn) [Example 11] had an inhibition at 1 µg/mL of 29% and an inhibition at 5 µg/mL of 32%. Besides, the “Inhibition of leucocyte stickiness” value in data set [2] is recorded as “inhibition”.
